# Results reported in US20040180953A1, “Crystalline form of phenylethanolamine, the preparation thereof and pharmaceutical compositions comprising the same” (priority 2001, published 2004).
# Counter-ions that a name gives are not always drawn.
# Experiments:
# Type in all cases: physicochemical
# [1] = Drying comparison of wet filtration cake in an agitated filter drier
# Description: The drying, in an agitated filter drier, of a wet filtration cake of SR58611A of A form results, in less than two hours, in a change in crystalline form and in the production of a cake composed of 90% of C form. To return to the A form, it is then necessary to continue the drying at a temperature of greater than 60° C. with agitation for approximately 48 h. […] Furthermore, the shape of the crystals obtained (thick hexagonal plates) makes it possible to reduce the residual moisture content of the filtration cake to contents of less than 20% and in fact facilitates the drying of the product for the purpose of its use as medicamental active principle.
# [2] = Thermodynamic stability of the polymorphic forms maintained in solution or suspension; settings: room temperature, or more generally less than or equal to 70° C.; whatever the solvent; hydrochloride
# Description: Furthermore, in addition to the possibility of having a purer and more homogeneous product, the B form can be obtained with better production efficiency, both with regard to crystallization and with regard to filtration and drying, in particular when it is prepared in propan-2-ol.
# [3] = Kinetic conversion of SR58611A polymorphic mixture to B form in propan-2-ol suspension
# Description: Polymorphic SR58611 hydrochloride (4.46 g) is suspended at ambient temperature in 0.3 litre of propan-2-ol. After maintaining for 70 h under isothermal conditions, the suspension is composed of SR58611A hydrochloride, B form, >96%. IR spectrum and X-ray diffraction are in agreement. Polymorphic SR58611 hydrochloride (95.2 g) is suspended at 70° C. in 0.3 litre of propan-2-ol. After maintaining for 12 h 30 under isothermal conditions, the suspension is composed of SR58611 hydrochloride, B form, >98%. IR spectrum and X-ray diffraction are in agreement.
smiles,measurement,setting,value
"CCOC(=O)COc1ccc2c(c1)C[C@@H](NC[C@H](O)c1cccc(Cl)c1)CC2.Cl [A form, ethyl [(7S)-7-[(2R)-2-(3-chlorophenyl)-2-hydroxyethylamino]-5,6,7,8-tetrahydronaphth-2-yloxy]-acetate hydrochloride]",C form content of the cake after change in crystalline form on drying,"[1]; agitated filter drier, wet filtration cake, in less than two hours",90%
same,further drying time needed to return to the A form,[1]; drying at greater than 60° C. with agitation,approximately 48 h
same,thermodynamic stability relative to the other polymorphs,[2],end up by being converted to the B form
"CCOC(=O)COc1ccc2c(c1)C[C@@H](NC[C@H](O)c1cccc(Cl)c1)CC2.Cl [B form, ethyl [(7S)-7-[(2R)-2-(3-chlorophenyl)-2-hydroxyethylamino]-5,6,7,8-tetrahydronaphth-2-yloxy]-acetate hydrochloride]",change of crystalline form on drying,[1]; drying of filtration cake,not changing crystalline form on drying
same,residual moisture content of the filtration cake,[1]; thick hexagonal plate crystals,less than 20%
same,thermodynamic stability relative to the other polymorphs,[2],the most thermodynamically stable form
"CCOC(=O)COc1ccc2c(c1)C[C@@H](NC[C@H](O)c1cccc(Cl)c1)CC2.Cl [C form, ethyl [(7S)-7-[(2R)-2-(3-chlorophenyl)-2-hydroxyethylamino]-5,6,7,8-tetrahydronaphth-2-yloxy]-acetate hydrochloride]",thermodynamic stability relative to the other polymorphs,[2],end up by being converted to the B form
"CCOC(=O)COc1ccc2c(c1)C[C@@H](NC[C@H](O)c1cccc(Cl)c1)CC2 [Polymorphic SR58611 hydrochloride, N-[(2S)-7-ethoxycarbonylmethoxy-1,2,3,4-tetrahydronaphth-2-yl]-(2R)-(3-chlorophenyl)-2-hydroxyethanamine hydrochloride]",B form content of the suspension after conversion,"[3]; suspended at 70° C. in propan-2-ol, 12 h 30 isothermal",> 98%
same,B form content of the suspension after conversion,"[3]; suspended at ambient temperature in propan-2-ol, 70 h isothermal",> 96%
